# In patent US20260199323A1, “LIGAND COMPOUNDS FOR E3 UBIQUITIN LIGASE, PROTEIN DEGRADERS DEVELOPED ON BASIS OF LIGAND COMPOUNDS, AND USES THEREOF” (GLUETACS THERAPEUTICS (SHANGHAI) CO., LTD., priority 2021, published 2026):
# Read-outs that look alike come from different tables or passages of the source.
# Assays:
# NCI-H1975 = experiment: CCK-8 tumor cell proliferation, NCI-H1975; type: cell-based, Human; conditions: Table 7, designed based on BTK inhibitors; 96 h
# In short: (§1)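 Cell viability (CCK-8) after compound exposure; IC50 calculated. Cells seeded, treated after 24 h, maximum dose 10 μM, 5-fold serial dilutions over 10 concentrations.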
# MM.1R = experiment: CCK-8 tumor cell proliferation, MM.1R; type: cell-based
# In short: as §1
# CAL-62 = experiment: CCK-8 tumor cell proliferation, CAL-62; type: cell-based, Human; conditions: Homo sapiens, CAL-62
# In short: as §1
# 22RV1 = experiment: CCK-8 tumor cell proliferation, 22RV1; set-up: species or system Human; conditions: Table 7, designed based on BTK inhibitors; 96 h
# Protocol: (§2) The tumor cells used herein were cultured in a cell culture medium listed in table 4 at 37° C. in an incubator with 5% CO2. Prior to experimentation, all cells used were correctly identified by STR profiling, and tested negative for mycoplasma through routine screenings.
# (§3) IC50 values of the compounds of the present disclosure (including the compounds in Tables 1 and 3, and compounds of examples) were measured using the Meilun Cell Counting Kit-8 kit from Dalian Meilun Biotech Co., Ltd. Assay details are as follows: tumor cells were seeded in a 96-well plate at a density listed in Table 5. After 24 h, 100 μL of the inoculated cells were treated with 0.5 μL of the compounds of the present disclosure (including the compounds in Tables 1 and 3, and compounds of examples) at 10 different successively decreasing concentrations (starting at the highest concentration of 10 μM; 5-fold serial dilutions). After the cells were treated with the compounds of the present disclosure for a period of time, the cell viability detection reagent was added to the culture medium for cell viability assessment according to the instructions provided with the CCK-8 kit. […] The growth inhibition of the compounds of the present disclosure on cells was plotted by Prism Graphpad software, and the IC50 values of the compounds of the present disclosure were calculated therefrom.
# MM.1S = experiment: CCK-8 tumor cell proliferation, MM.1S; type: cell-based; conditions: Table 7, designed based on BTK inhibitors; 72 h
# In short: as §1
# Vcap = experiment: CCK-8 tumor cell proliferation, Vcap; type: cell-based, Human; conditions: Table 7, designed based on BTK inhibitors; 96 h
# In short: as §1
# Jurkat = experiment: CCK-8 tumor cell proliferation, Jurkat; type: cell-based, Human; conditions: Homo sapiens
# In short: as §1
# Mino = experiment: CCK-8 tumor cell proliferation, Mino; type: cell-based, Human; conditions: for IC50 for inhibiting the proliferation of tumor cells, Mino: Table 7, designed based on BTK inhibitors, 72 h; for IC50: Mino, read-out: IC50 inhibiting proliferation of tumor cells, Mino
# In short: as §1
# MDA-MB-231 = experiment: CCK-8 tumor cell proliferation, MDA-MB-231; type: cell-based, Human; set-up: IC50 for inhibiting the proliferation of tumor cells, MDA-MB-231: scale not given here; conditions: Table 7, designed based on BTK inhibitors; 96 h
# In short: as §1
# MV-4-11 = experiment: CCK-8 tumor cell proliferation, MV-4-11; type: cell-based, Human; conditions: for IC50 for inhibiting the proliferation of tumor cells, MV-4-11: Table 7, designed based on BTK inhibitors, 72 h; for IC50: Homo sapiens, MV4-11, Table 19, IRAK4 inhibitor based, MV-4-11, read-out: IC50 inhibiting proliferation of tumor cells, MV-4-11
# In short: as §1
# Kasumi-1 = experiment: CCK-8 tumor cell proliferation, Kasumi-1; type: cell-based, Human; conditions: for IC50 for inhibiting the proliferation of tumor cells, Kasumi-1: Table 7, designed based on BTK inhibitors, 72 h; for IC50: Homo sapiens, Table 19, IRAK4 inhibitor based, Kasumi-1, read-out: IC50 inhibiting proliferation of tumor cells, Kasumi-1
# In short: as §1
# THP-1 = experiment: CCK-8 tumor cell proliferation, THP-1; type: cell-based, Human; conditions: Table 7, designed based on BTK inhibitors; 72 h
# Protocol: as §2, §3
# JEKO-1 = experiment: CCK-8 tumor cell proliferation, JEKO-1; set-up: species or system Human; conditions: Table 7, designed based on BTK inhibitors; 96 h
# Protocol: as §2, §3
# CCRF-CEM = experiment: CCK-8 tumor cell proliferation, CCRF-CEM; type: cell-based, Human; set-up: IC50 for inhibiting the proliferation of tumor cells, CCRF-CEM: scale not given here; conditions: for IC50 for inhibiting the proliferation of tumor cells, CCRF-CEM: Table 7, designed based on BTK inhibitors, 96 h; for IC50: Homo sapiens, Table 19, IRAK4 inhibitor based, CCRF-CEM, read-out: IC50 inhibiting proliferation of tumor cells, CCRF-CEM
# In short: as §1
# NCI-H1666 = experiment: CCK-8 tumor cell proliferation, NCI-H1666; type: cell-based, Human; conditions: read-out: IC50 inhibiting proliferation of tumor cells, NCI-H1666
# Protocol: as §2, §3
# SW620 = experiment: CCK-8 tumor cell proliferation, SW620; type: cell-based, Human; conditions: SW620, read-out: IC50 inhibiting proliferation of tumor cells, SW620
# In short: as §1
# SU-DHL-4 = experiment: CCK-8 tumor cell proliferation, SU-DHL-4; type: cell-based, Human; conditions: read-out: IC50 inhibiting proliferation of tumor cells, SU-DHL-4
# Protocol: as §2, §3
# [1] = Table 19, IRAK4 inhibitor based, read-out: IC50 inhibiting proliferation of tumor cells, MM.1R
# [2] = Table 19, IRAK4 inhibitor based, read-out: IC50 inhibiting proliferation of tumor cells, CAL-62
# [3] = Homo sapiens, Table 19, IRAK4 inhibitor based
# [4] = Table 19, IRAK4 inhibitor based, read-out: IC50 inhibiting proliferation of tumor cells, Jurkat
# [5] = Homo sapiens, SW-620, Table 19, IRAK4 inhibitor based
# [6] = Homo sapiens, Table 19, given as number
smiles,measurement,setting,value
"Nc1ncnc2c1c(-c1ccc(Oc3ccccc3)cc1)nn2C1CCN(Cc2ccc3c(c2)CN(C2CCC(=O)NC2=O)C3=O)CC1 (stereo not shown) [GT-02742, 3-(5-((4-(4-amino-3-(4-phenoxyphenyl)-1H-pyrazolo[3,4-d]pyrimidin-1-yl)piperidin-1-yl)methyl)-1-oxoisoindolin-2-yl)piperidine-2,6-dione]","IC50 for inhibiting the proliferation of tumor cells, NCI-H1975",NCI-H1975,A+
same,IC50,"MM.1R; Table 23, compared to Comparative Example compounds, read-out: Inhibitory activity (IC50, nM) against tumor cell proliferation, MM.1R",< 50 nM
same,IC50,"CAL-62; Table 23, compared to Comparative Example compounds, read-out: Inhibitory activity (IC50, nM) against tumor cell proliferation, CAL-62",< 50 nM
same,"IC50 for inhibiting the proliferation of tumor cells, 22RV1",22RV1,A+
same,"IC50 for inhibiting the proliferation of tumor cells, MM.1S",MM.1S,A+
same,"IC50 for inhibiting the proliferation of tumor cells, Vcap",Vcap,A+
same,IC50,"Jurkat; Table 23, compared to Comparative Example compounds, read-out: Inhibitory activity (IC50, nM) against tumor cell proliferation, Jurkat",< 50 nM
same,"IC50 for inhibiting the proliferation of tumor cells, Mino",Mino,A+
same,"IC50 for inhibiting the proliferation of tumor cells, MDA-MB-231",MDA-MB-231,A+
same,"IC50 for inhibiting the proliferation of tumor cells, MV-4-11",MV-4-11,A+
same,"IC50 for inhibiting the proliferation of tumor cells, Kasumi-1",Kasumi-1,A+
same,"IC50 for inhibiting the proliferation of tumor cells, THP-1",THP-1,A+
same,"IC50 for inhibiting the proliferation of tumor cells, JEKO-1",JEKO-1,A+
"Nc1ncnc2c1c(-c1ccc(Oc3ccccc3)cc1)nn2[C@H]1CCN(Cc2ccc3c(c2)CN(C2CCC(=O)NC2=O)C3=O)C[C@@H]1F (stereo partly drawn) [GT-03264, 3-(5-(((3S,4S)-4-(4-amino-3-(4-phenoxyphenyl)-1H-pyrazolo[3,4-d]pyrimidin-1-yl)-3-fluoropiperidin-1-yl)methyl)-1-oxoisoindolin-2-yl)piperidine-2,6-dione]","IC50 for inhibiting the proliferation of tumor cells, NCI-H1975",NCI-H1975,A+
same,"IC50 for inhibiting the proliferation of tumor cells, 22RV1",22RV1,A+
same,"IC50 for inhibiting the proliferation of tumor cells, MM.1S",MM.1S,A+
same,"IC50 for inhibiting the proliferation of tumor cells, Mino",Mino,A+
same,"IC50 for inhibiting the proliferation of tumor cells, MDA-MB-231",MDA-MB-231,A+
same,"IC50 for inhibiting the proliferation of tumor cells, JEKO-1",JEKO-1,A+
"Nc1ncnc2c1c(-c1ccc(Oc3ccccc3)cc1)nn2[C@@H]1CCN(Cc2ccc3c(c2)CN(C2CCC(=O)NC2=O)C3=O)C[C@@H]1F (stereo partly drawn) [GT-03297, 3-(5-(((3S,4R)-4-(4-amino-3-(4-phenoxyphenyl)-1H-pyrazolo[3,4-d]pyrimidin-1-yl)-3-fluoropiperidin-1-yl)methyl)-1-oxoisoindolin-2-yl)piperidine-2,6-dione]","IC50 for inhibiting the proliferation of tumor cells, NCI-H1975",NCI-H1975,A+
same,"IC50 for inhibiting the proliferation of tumor cells, 22RV1",22RV1,A+
same,"IC50 for inhibiting the proliferation of tumor cells, MM.1S",MM.1S,A+
same,"IC50 for inhibiting the proliferation of tumor cells, Vcap",Vcap,A+
same,"IC50 for inhibiting the proliferation of tumor cells, CCRF-CEM",CCRF-CEM,A+
same,"IC50 for inhibiting the proliferation of tumor cells, MDA-MB-231",MDA-MB-231,A+
same,"IC50 for inhibiting the proliferation of tumor cells, Kasumi-1",Kasumi-1,A+
same,"IC50 for inhibiting the proliferation of tumor cells, THP-1",THP-1,A+
same,"IC50 for inhibiting the proliferation of tumor cells, JEKO-1",JEKO-1,A+
"Nc1ncnc2c1c(-c1ccc(Oc3ccccc3)cc1)nn2[C@H]1CCN(Cc2ccc3c(c2)CN(C2CCC(=O)NC2=O)C3=O)C[C@H]1F (stereo partly drawn) [GT-03331, 3-(5-(((3R,4S)-4-(4-amino-3-(4-phenoxyphenyl)-1H-pyrazolo[3,4-d]pyrimidin-1-yl)-3-fluoropiperidin-1-yl)methyl)-1-oxoisoindolin-2-yl)piperidine-2,6-dione]","IC50 for inhibiting the proliferation of tumor cells, NCI-H1975",NCI-H1975,A+
same,"IC50 for inhibiting the proliferation of tumor cells, 22RV1",22RV1,A+
same,"IC50 for inhibiting the proliferation of tumor cells, MM.1S",MM.1S,A+
same,"IC50 for inhibiting the proliferation of tumor cells, Vcap",Vcap,A+
same,"IC50 for inhibiting the proliferation of tumor cells, Mino",Mino,A+
same,"IC50 for inhibiting the proliferation of tumor cells, CCRF-CEM",CCRF-CEM,A+
same,"IC50 for inhibiting the proliferation of tumor cells, MDA-MB-231",MDA-MB-231,A+
same,"IC50 for inhibiting the proliferation of tumor cells, MV-4-11",MV-4-11,A+
same,"IC50 for inhibiting the proliferation of tumor cells, Kasumi-1",Kasumi-1,A+
same,"IC50 for inhibiting the proliferation of tumor cells, THP-1",THP-1,A+
same,"IC50 for inhibiting the proliferation of tumor cells, JEKO-1",JEKO-1,A+
"O=C1CCC(N2Cc3cc(CN4CCC(n5cc(NC(=O)c6cnn7ccc(N8CCOCC8)nc67)c(C(F)F)n5)CC4)ccc3C2=O)C(=O)N1 (stereo not shown) [GT-03809, N-(3-(difluoromethyl)-1-(1-((2-(2,6-dioxopiperidin-3-yl)-1-oxoisoindolin-5-yl)methyl)piperidin-4-yl)-1H-pyrazol-4-yl)-5-morpholinopyrazolo[1,5-a]pyrimidine-3-carboxamide]",IC50,MM.1R; [1],< 50 nM
same,IC50,CAL-62; [2],< 50 nM
same,IC50,NCI-H1666; [3],500 to 1000 nM
same,IC50,Jurkat; [4],< 50 nM
same,IC50,Mino; [3],< 50 nM
same,IC50,CCRF-CEM,< 50 nM
same,IC50,SW620; [5],< 50 nM
same,IC50,MV-4-11,< 50 nM
same,IC50,Kasumi-1,< 50 nM
same,IC50,SU-DHL-4; [3],500 to 1000 nM
"O=C1CCC(N2Cc3c(ccc(CN4CCC(n5cc(NC(=O)c6cnn7ccc(N8CCOCC8)nc67)c(C(F)F)n5)CC4)c3F)C2=O)C(=O)N1 (stereo not shown) [GT-03810, N-(3-(difluoromethyl)-1-(1-((2-(2,6-dioxopiperidin-3-yl)-4-fluoro-1-oxoisoindolin-5-yl)methyl)piperidin-4-yl)-1H-pyrazol-4-yl)-5-morpholinopyrazolo[1,5-a]pyrimidine-3-carboxamide]",IC50,MM.1R; [1],< 50 nM
same,IC50,CAL-62; [2],< 50 nM
same,IC50,NCI-H1666; [3],100 to 500 nM
same,IC50,Jurkat; [4],< 50 nM
same,IC50,Mino; [3],< 50 nM
same,IC50,CCRF-CEM,< 50 nM
same,IC50,SW620; [5],< 50 nM
same,IC50,MV-4-11,< 50 nM
same,IC50,Kasumi-1,< 50 nM
same,IC50,SU-DHL-4; [3],100 to 500 nM
"CC[C@@H]1[C@H](F)C(=O)N[C@@H]1COc1nccc2cc(C(N)=O)c(OC)cc12 [PF06650833, reference compound]",IC50,"NCI-H1666; Table 19, given as number",> 10000 nM
same,IC50,"Mino; Table 19, IRAK4 inhibitor based",5000 to 10000 nM
same,IC50,"SW620; Table 19, given as number",> 10000 nM
same,IC50,"SU-DHL-4; Table 19, given as number",> 10000 nM
"Cc1cc(-c2nc(C(=O)Nc3cc4oc(N5CCOCC5)nc4nc3N3CC[C@@H](O)C3)co2)ccn1 [emavusertib, reference compound]",IC50,NCI-H1666; [6],> 10000 nM
same,IC50,Mino; [6],> 10000 nM
same,IC50,"SW620; Homo sapiens, SW-620, Table 19, given as number",> 10000 nM
same,IC50,SU-DHL-4; [6],> 10000 nM
